These results are taken from PMC4552634, “A New Set of Chemical Starting Points with Plasmodium falciparum Transmission-Blocking Potential for Antimalarial Drug Discovery” (PLoS ONE, 2015).

As usually defined, the IC50 is the concentration at which inhibition is half-maximal.

Where two headings read alike, the source gives them in different places.

In data set [1] the test system is P. falciparum stage V gametocytes. In words: Gametocytocidal ATP bioluminescence assay (single point 5 μM and 1 μM, dose-response). Conditions: for Ratio IC50 HepG2/IC50 P. falciparum: IC50 HepG2 divided by IC50 P. falciparum gametocytes. In kind it is cell-based, Plasmodium falciparum.
Protocol: Purified stage IV-V gametocytes were obtained as previously described [10]. Single point ATP bioluminescence assay and dose–response of positive hits was determined in accordance with the previously published protocol [10].
A further data set deals with HepG2 cells. In words: Cytotoxicity in HepG2 cells (intracellular ATP, ATPlite, 48 h). The format is cell-based, human. Conditions: HepG2 cells; IC50 per ratio column head; unit inferred. A general note: Cellular ATP, detected with luciferase, serves as a proxy for viable cell number.
In data set [2] the test system is P. falciparum asexual stages. As to conditions: asexual stages; TCAMS data; read-out: IC50 asexual; cited from earlier work.
Setting [3] is: P. falciparum gametocytes, average, read-out: IC50 Pf Gametocytes average, IC50 (µM) average.
Setting [4] is: sexual stages (gametocytes), dose-response, read-out: IC50 sexual.

Regarding `CC(Cc1ccc(CNC(=O)NCc2ccc(CC(C)NCCc3cccc(Cl)c3)cc2)cc1)NCCc1cccc(Cl)c1` (stereo not shown) [TCMDC-139648], the “Ratio IC50 HepG2/IC50 P. falciparum” value in data set [1] is reported as 7. In addition, the figures for the IC50 (in data set [1] (setting [3]); with HepG2 cells; in data set [2]) were 0.61 µM, 4180 nM and 685 nM, respectively.
Consider `CC(=O)N(Cc1ccc(CC(C)NCCc2cccc(Cl)c2)cc1)Cc1ccc(CC(C)NCCc2cccc(Cl)c2)cc1` (stereo not shown) [TCMDC-139678], for which the “Ratio IC50 HepG2/IC50 P. falciparum” value in data set [1] turned out to be 1.64. The half-maximal inhibitory concentration (IC50) in data set [1] (setting [3]) was 1.4 µM; in the data set on HepG2 cells, 2300 nM; in data set [2], 783 nM.
As to `COc1ccc(CCNC(C)Cc2ccc(C(=O)Nc3ccc(CC(C)NCCc4cccc(Cl)c4)cc3)cc2)cc1` (stereo not shown) [TCMDC-139750], the “Ratio IC50 HepG2/IC50 P. falciparum” value in data set [1] amounted to 4. The results for the half-inhibitory concentration (IC50) (in data set [1] (setting [3]); with HepG2 cells; in data set [2]) were 0.62 µM, 2400 nM and 248 nM, respectively.
For the compound `CC(CCCC(=O)Nc1ccc(CC(C)NCCc2cccc(Cl)c2)cc1)NCCc1cccc(Cl)c1` (stereo not shown) [TCMDC-139798], the “Ratio IC50 HepG2/IC50 P. falciparum” value in data set [1] is 5.52. The IC50 in data set [1] (setting [3]) was 0.82 µM; in data set [1] (setting [4]) it was 0.815 µM; in the data set with HepG2 cells, 4500 nM; in data set [2], 625 nM.
On to `CC(CCCCC(=O)Nc1ccc(CC(C)NCCc2cccc(Cl)c2)cc1)NCCc1cccc(Cl)c1` (stereo not shown) [TCMDC-139799], for which, in data set [1], the “Ratio IC50 HepG2/IC50 P. falciparum” value is 4. Besides, the concentration for half-maximal inhibition (IC50) was 1.66 µM in data set [1] (setting [3]), 1.66 µM in data set [1] (setting [4]), 6590 nM in the data set with HepG2 cells and 1010 nM in data set [2].
Regarding `CCOc1ccccc1CCNC(C)Cc1ccc(C(=O)Nc2ccc(CC(C)NCCc3cccc(Cl)c3)cc2)cc1` (stereo not shown) [TCMDC-139805], the “Ratio IC50 HepG2/IC50 P. falciparum” value in data set [1] was 5.71. The IC50 in data set [1] (setting [3]) is 0.61 µM; in data set [1] (setting [4]), 0.613 µM; in the data set on HepG2 cells, 3500 nM; in data set [2], 539 nM.
As for `CCCCCCCN1CC[C@@H](CCCc2ccnc3ccc(OCC4CCCNC4)cc23)[C@@H](CC)C1` (stereo partly shown) [TCMDC-139816], the “Ratio IC50 HepG2/IC50 P. falciparum” value in data set [1] was found to be 14. For the same compound, the results for the 50% inhibitory concentration (IC50) (in data set [1] (setting [3]); in the data set with HepG2 cells; in data set [2]) were 0.3 µM, 4180 nM and 625 nM, respectively.
Turning to `CCCCCCCN1CC[C@@H](CCCc2ccnc3ccc(OCCC4CCNCC4)cc23)[C@@H](CC)C1` [TCMDC-139819], the “Ratio IC50 HepG2/IC50 P. falciparum” value in data set [1] is 11. Besides, the IC50 was 0.42 µM in data set [1] (setting [3]), 0.415 µM in data set [1] (setting [4]), 4500 nM with HepG2 cells and 610 nM in data set [2].
`CC(Cc1ccc(COc2ccc(CC(CO)NCCc3cccc(Cl)c3)cc2)cc1)NCCc1cccc(Cl)c1` (stereo not shown) [TCMDC-139844]: in data set [1], the “Ratio IC50 HepG2/IC50 P. falciparum” value is 2.53. Besides, the 50% inhibitory concentration (IC50) in data set [1] (setting [3]) is 1.39 µM; in data set [1] (setting [4]), 1.39 µM; with HepG2 cells, 3500 nM; in data set [2], 821 nM.
As for `Cc1oc(-c2ccc(Cl)cc2)cc1C(=O)NCCC1CCN(CCCCCNC(=O)/C=C/c2ccc(Cl)c(Cl)c2)CC1` [TCMDC-140009], the “Ratio IC50 HepG2/IC50 P. falciparum” value in data set [1] is listed as 0.755. Also, the concentration for half-maximal inhibition (IC50) in data set [1] (setting [3]) was 5.43 µM; in the data set on HepG2 cells, 4100 nM; in data set [2] it was 446 nM.
For the compound `CC(Cc1ccc(OCCCCOc2ccccc2)cc1)NCCC1CCCN1C` (stereo not shown) [TCMDC-140017], the “Ratio IC50 HepG2/IC50 P. falciparum” value in data set [1] was less than 16. Further, the half-maximal inhibitory concentration (IC50) in data set [1] (setting [3]) was 0.095 µM; in the data set with HepG2 cells, less than 1560 nM; in data set [2], 40 nM.
With `CN(CCCCN)Cc1ccc(-c2ccc(Cl)cc2)cc1` [TCMDC-140123], the “Ratio IC50 HepG2/IC50 P. falciparum” value in data set [1] worked out at 10. The 50% inhibitory concentration (IC50) is 0.41 µM in data set [1] (setting [3]), 0.413 µM in data set [1] (setting [4]), 3990 nM in the data set with HepG2 cells and 882 nM in data set [2].
On to `CN(C)CCN(Cc1ccccc1-c1ccc(CNCCc2ccccc2)cc1)C(=O)c1ccccc1` [TCMDC-140532], for which the “Ratio IC50 HepG2/IC50 P. falciparum” value in data set [1] is listed as 10. Also, the IC50 was 0.78 µM in data set [1] (setting [3]), 7540 nM in the data set on HepG2 cells and 1700 nM in data set [2].
